Source: paper PMC11219871, “Epigenetic-based differentiation therapy for Acute Myeloid Leukemia” (Nature Communications, 2024)
“And” between values parts separate entries of the source, which are not always exact repeats. Identical values can stand only once.

How the values were obtained:
HDAC6 = target: T1, HDAC6 (Homo sapiens, UniProt Q9UBN7); experiment: HDAC enzymatic assay, fluorescence-labeled substrate; type: biochemical
T1 sequence (Q9UBN7 1-1215): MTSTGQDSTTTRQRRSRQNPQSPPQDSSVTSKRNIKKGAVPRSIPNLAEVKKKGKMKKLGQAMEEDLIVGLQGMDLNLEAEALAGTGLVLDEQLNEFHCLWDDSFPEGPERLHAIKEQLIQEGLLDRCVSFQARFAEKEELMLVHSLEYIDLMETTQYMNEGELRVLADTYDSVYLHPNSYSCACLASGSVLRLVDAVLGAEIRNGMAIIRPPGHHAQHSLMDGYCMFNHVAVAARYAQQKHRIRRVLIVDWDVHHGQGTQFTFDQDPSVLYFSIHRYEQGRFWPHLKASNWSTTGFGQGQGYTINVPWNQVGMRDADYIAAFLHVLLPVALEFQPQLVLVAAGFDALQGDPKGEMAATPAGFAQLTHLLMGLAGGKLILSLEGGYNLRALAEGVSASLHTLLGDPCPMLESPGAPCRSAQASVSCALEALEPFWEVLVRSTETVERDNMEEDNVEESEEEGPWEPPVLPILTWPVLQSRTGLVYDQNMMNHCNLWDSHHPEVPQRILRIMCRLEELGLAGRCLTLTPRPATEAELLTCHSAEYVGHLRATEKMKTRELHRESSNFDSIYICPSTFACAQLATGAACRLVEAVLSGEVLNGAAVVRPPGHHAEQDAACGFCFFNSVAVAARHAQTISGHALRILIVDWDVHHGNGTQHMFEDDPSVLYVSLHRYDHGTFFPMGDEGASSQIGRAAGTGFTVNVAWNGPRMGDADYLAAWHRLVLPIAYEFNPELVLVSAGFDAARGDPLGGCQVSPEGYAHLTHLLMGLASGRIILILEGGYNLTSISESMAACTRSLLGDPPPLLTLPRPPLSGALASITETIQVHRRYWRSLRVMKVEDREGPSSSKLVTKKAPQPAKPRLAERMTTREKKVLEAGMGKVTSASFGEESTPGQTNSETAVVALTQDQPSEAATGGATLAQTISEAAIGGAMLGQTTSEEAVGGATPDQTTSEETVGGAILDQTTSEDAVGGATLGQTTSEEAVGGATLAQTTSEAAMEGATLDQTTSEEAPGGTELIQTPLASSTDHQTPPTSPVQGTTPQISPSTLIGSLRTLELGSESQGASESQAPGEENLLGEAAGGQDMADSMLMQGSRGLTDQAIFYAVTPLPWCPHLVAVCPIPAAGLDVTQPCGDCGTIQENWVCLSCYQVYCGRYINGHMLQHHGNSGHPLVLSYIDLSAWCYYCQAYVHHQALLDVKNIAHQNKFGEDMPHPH

MV4-11 = experiment: q-RT-PCR of MYC, CDKN2A, CDKN1A, GATA2, TAL1, CEBPA, SPI1; type: cell-based, human
Experimental: (§1) RNA was extracted with TRIzol Reagent (Invitrogen) according to the manufacturer’s instructions. First, cDNA was synthesized from 1 µg of total RNA using the PrimeScript RT reagent Kit (Perfect Real Time) (Cat No RR037A, TaKaRa) following the manufacturer’s instructions. The quality of cDNA was checked by a multiplex PCR that amplifies PBGD, ABL, BCR and β2-MG genes. […] The following program conditions were used for the q-PCR: 50 °C for 2 min, 95 °C for 60 s following by 45 cycles at 95 °C for 15 s and 60 °C for 60 s; melting program, one cycle at 95 °C for 15 s, 40 °C for 60 s, and 95 °C for 15 s. The relative expression of each gene was quantified by the […] method using the gene GUS as an endogenous control. The sequence of primers used can be found in Supplementary Table 10.

HL-60 = experiment: as above; type: cell-based, human
Experimental: as §1

MOLM-13 = experiment: as above; type: cell-based, human
Experimental: as §1

ML-2 = experiment: as above; type: cell-based, human
Experimental: as §1

[1] = MV4-11, daily treatment for 48 h, replicates 1-3
[2] = HL-60, replicates 1-3 (Figure 2E)
[3] = HL-60, replicates 1-3 (Figure 2G)
[4] = HL-60 treated daily for 48 h, replicates (Fig 6F)
[5] = MOLM-13, daily treatment for 48 h, replicates 1-3
[6] = ML-2, replicates 1-3 (Figure 2E)
[7] = ML-2, replicates 1-3 (Figure 2G)
[8] = ML-2 treated daily for 48 h, replicates (Fig 6G)

COc1cc2nc(-c3cc(C)oc3C)cc(NCC3CCN(c4ncc(C(=O)NO)cn4)CC3)c2cc1OC [CM-1758, 2-[4-[[[2-(2,5-dimethyl-3-furyl)-6,7-dimethoxy-4-quinolyl]amino]methyl] -1-piperidyl]pyrimidine-5-carbohydroxamic acid]
inhibition at 10 µM (HDAC6; 10 µM, source data of Fig. 1B): 90%
IC50 (HDAC6; read-out: IC50): 0.257 µM
q-PCR of CEBPA, log10 (2-ΔΔCt) (MV4-11; [1]): 1.278 and 1.212 and 1.279
q-PCR of GATA2, log10 (2-ΔΔCt) (MV4-11; [1]): 2.088 and 2.042 and 2.015
q-PCR of MYC, log10 (2-ΔΔCt) (MV4-11; [1]): -0.6051 and -0.8193 and -0.727
q-PCR of SPI1, log10 (2-ΔΔCt) (MV4-11; [1]): 0.513 and 0.595 and 0.5328
q-PCR of TAL1, log10 (2-ΔΔCt) (MV4-11; [1]): 0.8637 and 0.6983 and 1.049
CDKN1A log10 (2-ΔΔCt) (MV4-11; MV4-11, q-PCR): 0.6259 and 0.6326 and 0.6646
CDKN2A log10 (2-ΔΔCt) (MV4-11; MV4-11, q-PCR): 0.8926 and 0.6026 and 0.7418
CEBPA log10 (2-ΔΔCt) (MV4-11; MV4-11, q-PCR): 1.982 and 1.782 and 1.913
MYC log10 (2-ΔΔCt) (MV4-11; MV4-11, q-PCR): -0.7926 and -0.6522 and -0.726
SPI1 log10 (2-ΔΔCt) (MV4-11; MV4-11, q-PCR): 0.2626 and 0.2252 and 0.159
TAL1 log10 (2-ΔΔCt) (MV4-11; MV4-11, q-PCR): 0.5124 and 0.5 and 0.5901
q-PCR of CDKN1A (p21), log10 (2-ΔΔCt) (HL-60; [2]): 1.37 and 1.926 and 1.271
q-PCR of CDKN2A (p16), log10 (2-ΔΔCt) (HL-60; [2]): 0.4933 and 0.5726 and 0.5849
q-PCR of MYC, log10 (2-ΔΔCt) (HL-60; [2]): -0.8313 and -0.6255 and -0.6597
q-PCR of CEBPA, log10 (2-ΔΔCt) (HL-60; [3]): 0.9022 and 0.7826 and 0.9863
q-PCR of GATA2, log10 (2-ΔΔCt) (HL-60; [3]): 0.6526 and 0.7826 and 0.7794
q-PCR of SPI1 (PU.1), log10 (2-ΔΔCt) (HL-60; [3]): 0.3258 and 0.4025 and 0.5101
q-PCR of TAL1 (SCL), log10 (2-ΔΔCt) (HL-60; [3]): 0.0125 and 0.0025 and -0.00845
q-PCR of CEBPA (HL-60; [4]): 1.657 log10 (2-ΔΔCt) and 1.235 log10 (2-ΔΔCt) and 2.096 log10 (2-ΔΔCt)
q-PCR of GATA2 (HL-60; [4]): 0.5314 log10 (2-ΔΔCt) and 0.9421 log10 (2-ΔΔCt) and 0.9001 log10 (2-ΔΔCt)
q-PCR of MYC (HL-60; [4]): -0.7182 log10 (2-ΔΔCt) and -0.6003 log10 (2-ΔΔCt) and -0.8615 log10 (2-ΔΔCt)
q-PCR of SPI1 (HL-60; [4]): 0.5322 log10 (2-ΔΔCt) and 0.69 log10 (2-ΔΔCt) and 0.7959 log10 (2-ΔΔCt)
q-PCR of TAL1 (HL-60; [4]): 1.7134 log10 (2-ΔΔCt) and 1.966 log10 (2-ΔΔCt) and 2.209 log10 (2-ΔΔCt)
q-PCR of CEBPA, log10 (2-ΔΔCt) (MOLM-13; [5]): 2.72 and 2.6188 and 2.826
q-PCR of GATA2, log10 (2-ΔΔCt) (MOLM-13; [5]): 1.088 and 1.1424 and 1.015
q-PCR of MYC, log10 (2-ΔΔCt) (MOLM-13; [5]): -0.6216 and -0.5326 and -0.5822
q-PCR of SPI1, log10 (2-ΔΔCt) (MOLM-13; [5]): 0.02692 and 0.258 and 0.1525
q-PCR of TAL1, log10 (2-ΔΔCt) (MOLM-13; [5]): 1.716 and 1.83 and 1.719
CDKN1A log10 (2-ΔΔCt) (MOLM-13; MOLM-13, q-PCR): 0.1026 and 0.1237 and 0.1127
CDKN2A log10 (2-ΔΔCt) (MOLM-13; MOLM-13, q-PCR): 1.026 and 0.9216 and 0.9282
GATA2 log10 (2-ΔΔCt) (MOLM-13; MOLM-13, q-PCR): 0.5214 and 0.4825 and 0.3541
MYC log10 (2-ΔΔCt) (MOLM-13; MOLM-13, q-PCR): -0.9936 and -0.8825 and -0.8494
SPI1 log10 (2-ΔΔCt) (MOLM-13; MOLM-13, q-PCR): 0.02258 and 0.0358 and 0.04789
TAL1 log10 (2-ΔΔCt) (MOLM-13; MOLM-13, q-PCR): 1.37 and 1.426 and 1.336
q-PCR of CDKN1A (p21), log10 (2-ΔΔCt) (ML-2; [6]): 1.727 and 1.688 and 1.928
q-PCR of CDKN2A (p16), log10 (2-ΔΔCt) (ML-2; [6]): 0.7127 and 0.6825 and 0.5556
q-PCR of MYC, log10 (2-ΔΔCt) (ML-2; [6]): -0.9587 and -1.237 and -1.248
q-PCR of CEBPA, log10 (2-ΔΔCt) (ML-2; [7]): 1.926 and 1.786 and 1.671
q-PCR of GATA2, log10 (2-ΔΔCt) (ML-2; [7]): 2.013 and 1.996 and 2.475
q-PCR of SPI1 (PU.1), log10 (2-ΔΔCt) (ML-2; [7]): 0.4833 and 0.5215 and 0.7318
q-PCR of TAL1 (SCL), log10 (2-ΔΔCt) (ML-2; [7]): 1.453 and 1.626 and 1.68
q-PCR of CEBPA (ML-2; [8]): 1.831 log10 (2-ΔΔCt) and 1.961 log10 (2-ΔΔCt) and 2.004 log10 (2-ΔΔCt)
q-PCR of GATA2 (ML-2; [8]): 1.288 log10 (2-ΔΔCt) and 1.216 log10 (2-ΔΔCt) and 1.319 log10 (2-ΔΔCt)
q-PCR of MYC (ML-2; [8]): -0.6622 log10 (2-ΔΔCt) and -0.5247 log10 (2-ΔΔCt) and -0.8222 log10 (2-ΔΔCt)
q-PCR of SPI1 (ML-2; [8]): 0.8685 log10 (2-ΔΔCt) and 0.5818 log10 (2-ΔΔCt) and 0.6427 log10 (2-ΔΔCt)
q-PCR of TAL1 (ML-2; [8]): 1.398 log10 (2-ΔΔCt) and 0.9599 log10 (2-ΔΔCt) and 0.8228 log10 (2-ΔΔCt)
